The results in this text go back to patent publication US9834564B2, “Substituted quinolines as PDE-10 inhibitors” (priority 2010, dated 2017).

The target of assay [1] is recombinant human PDE-10 enzyme (PDE-10A) (Homo sapiens (Human), UniProt Q9Y233). Description: IMAP PDE Fluorescence Polarization assay, human PDE-10 inhibition (enzyme assay). Particulars: recombinant human PDE-10, fluorescein-labeled cAMP/cGMP substrate, 40 min at 37° C. The format is biochemical. Background: Polarisation of emitted light reports the rotation of a fluorescent probe.
recombinant human PDE-10 enzyme (PDE-10A), sequence (Q9Y233 whole entry): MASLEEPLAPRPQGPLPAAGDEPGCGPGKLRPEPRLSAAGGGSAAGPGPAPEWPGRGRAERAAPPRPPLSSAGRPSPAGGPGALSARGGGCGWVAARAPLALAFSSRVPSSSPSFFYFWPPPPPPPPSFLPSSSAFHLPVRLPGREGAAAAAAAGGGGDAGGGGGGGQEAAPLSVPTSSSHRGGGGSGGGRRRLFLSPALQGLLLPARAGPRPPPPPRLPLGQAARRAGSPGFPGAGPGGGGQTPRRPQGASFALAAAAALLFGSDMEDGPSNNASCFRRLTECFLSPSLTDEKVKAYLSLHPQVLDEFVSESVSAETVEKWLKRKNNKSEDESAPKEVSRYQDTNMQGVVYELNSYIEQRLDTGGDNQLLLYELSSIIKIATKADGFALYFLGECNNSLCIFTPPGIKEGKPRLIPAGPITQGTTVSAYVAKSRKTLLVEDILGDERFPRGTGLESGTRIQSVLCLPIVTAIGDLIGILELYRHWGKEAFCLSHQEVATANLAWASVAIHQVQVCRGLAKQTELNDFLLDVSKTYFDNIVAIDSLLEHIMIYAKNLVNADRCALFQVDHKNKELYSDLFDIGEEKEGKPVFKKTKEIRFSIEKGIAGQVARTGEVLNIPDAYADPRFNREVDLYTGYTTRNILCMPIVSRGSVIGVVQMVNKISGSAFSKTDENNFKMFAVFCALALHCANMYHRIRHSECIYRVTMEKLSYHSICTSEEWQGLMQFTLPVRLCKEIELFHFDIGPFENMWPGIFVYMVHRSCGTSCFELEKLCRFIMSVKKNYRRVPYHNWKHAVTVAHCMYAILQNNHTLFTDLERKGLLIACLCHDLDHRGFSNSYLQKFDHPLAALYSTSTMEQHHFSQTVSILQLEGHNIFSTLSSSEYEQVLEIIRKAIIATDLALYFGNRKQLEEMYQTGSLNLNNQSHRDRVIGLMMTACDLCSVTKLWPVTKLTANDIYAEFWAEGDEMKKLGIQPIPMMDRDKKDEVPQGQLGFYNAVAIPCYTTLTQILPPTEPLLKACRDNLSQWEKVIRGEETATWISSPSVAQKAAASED

Assay [2] concerns the target HEK293 cells over-expressing PDE-10A (Homo sapiens (Human), UniProt Q9Y233). Nature of the assay: whole cell PDE-10 assay, intracellular cGMP in HEK293 cells over-expressing PDE-10A. The format is cell-based. Particulars: concentration elevating intracellular cyclic nucleotide 300% above baseline; HEK293 over-expressing PDE-10A, 30 min compound, 200 μM sodium nitroprusside 2 min.

For orientation: IC50 means the midpoint of a concentration-inhibition curve.

SMILES strings stand for the structures.

HEK293 cells over-expressing PDE-10A, sequence (Q9Y233 whole entry): as above

As for `Cc1nc(CCc2nc3c4cccnc4ccc3n2C)nc2c1CCC2` [Compound 210], the 50% inhibitory concentration (IC50) in assay [1] is less than 500 nM. Also, the “PDE-10 EC300 (μM)” value in assay [2] is “++++ (IC50 or EC300<0.5 μM ++++)”.
The corresponding values for `O=c1oc(CCc2nc(-c3ccccc3)c[nH]2)nc2ccccc12` [Compound 82] are 1000 to 10000 nM and “+ (IC50 or EC300>10 μM +)”.
The like results for `Fc1ccccc1-c1c[nH]c(CCc2cnc3ccccc3n2)n1` [Compound 75] were, in that order, less than 500 nM and “++++ (IC50 or EC300<0.5 μM ++++)”.
The like results for `O=c1[nH]c(CCc2nc(-c3ccccc3F)c[nH]2)nc2ccccc12` [Compound 59] were, in that order, less than 500 nM and “++ (1<IC50 or EC300<10 μM ++)”.
In the case of `Cn1cc(-c2ccccc2)nc1CCc1cnc2ccccc2n1` [Compound 20], in assay [1], the IC50 is less than 500 nM. Moreover, the “PDE-10 EC300 (μM)” value in assay [2] was “+++ (0.5<IC50 or EC300<1 μM +++)”.
The corresponding values for `Cc1ncc(C)n2nc(CCc3cnc4ccccc4n3)nc12` [Compound 134] are less than 500 nM and “++ (1<IC50 or EC300<10 μM ++)”.
The like results for `c1ccc2nc(CCc3nc(-c4ccsc4)c[nH]3)cnc2c1` [Compound 73] were, in that order, less than 500 nM and “++++ (IC50 or EC300<0.5 μM ++++)”.
As to `Cn1cc(-c2ccccc2)nc1CCc1nc2ccccc2c(=O)[nH]1` [Compound 8], the concentration for half-maximal inhibition (IC50) in assay [1] was greater than 10000 nM. Further, the “PDE-10 EC300 (μM)” value in assay [2] is recorded as “++++ (IC50 or EC300<0.5 μM ++++)”.
The like results for `Fc1cccc(-c2c[nH]c(CCc3cnc4ccccc4n3)n2)c1` [Compound 76] were, in that order, less than 500 nM and “++++ (IC50 or EC300<0.5 μM ++++)”.
The like results for `Cc1ncc(C)n2nc(CCc3ccc4ccc5ncccc5c4n3)nc12` [Compound 142] were, in that order, less than 500 nM and “++++ (IC50 or EC300<0.5 μM ++++)”.
The like results for `Cn1cc(-c2ccco2)nc1CCc1ccc2ccccc2n1` [Compound 39] were, in that order, less than 500 nM and “++++ (IC50 or EC300<0.5 μM ++++)”.
On to `O=c1[nH]c(CCc2nc(-c3ccc(F)cc3)c[nH]2)nc2ccccc12` [Compound 60], for which the half-inhibitory concentration (IC50) in assay [1] lay within 500 to 1000 nM. Also, the “PDE-10 EC300 (μM)” value in assay [2] is on record as “++ (1<IC50 or EC300<10 μM ++)”.
Regarding `c1ccc(-c2c[nH]c(CCc3cnc4ccncc4n3)n2)cc1` [Compound 17], in assay [1], the IC50 is less than 500 nM. Further, in assay [2], the “PDE-10 EC300 (μM)” value is “+++ (0.5<IC50 or EC300<1 μM +++)”.
For `Cn1cc(-c2cccc(F)c2)nc1CCc1cnc2ccccc2n1` [Compound 49], the IC50 in assay [1] is less than 500 nM. For the same molecule, in assay [2], the “PDE-10 EC300 (μM)” value is “++++ (IC50 or EC300<0.5 μM ++++)”.
The corresponding values for `Cn1cc(-c2ccsc2)nc1CCc1cnc2ccccc2n1` [Compound 46] are less than 500 nM and “++++ (IC50 or EC300<0.5 μM ++++)”.
The corresponding values for `c1ccc(-c2c[nH]c(OCc3cnc4ccccc4n3)n2)cc1` [Compound 123] are less than 500 nM and “++ (1<IC50 or EC300<10 μM ++)”.
With `Fc1cccc(-c2c[nH]c(CCc3ccc4ccccc4n3)n2)c1` [Compound 70], the IC50 in assay [1] is less than 500 nM. Moreover, in assay [2], the “PDE-10 EC300 (μM)” value is on record as “++ (1<IC50 or EC300<10 μM ++)”.
As to `Cn1c(CCc2ccc3ccccc3n2)nc2c3ncccc3ccc21` [Compound 155], in assay [1], the IC50 was less than 500 nM. Besides, the “PDE-10 EC300 (μM)” value in assay [2] was “+++ (0.5<IC50 or EC300<1 μM +++)”.
The corresponding values for `O=c1[nH]c(CCc2nc(-c3cccc4cccnc34)c[nH]2)nc2ccccc12` [Compound 58] are 500 to 1000 nM and “++ (1<IC50 or EC300<10 μM ++)”.
For `Cn1cc(-c2cccc(F)c2)nc1CCc1ccc2ccccc2n1` [Compound 43], the 50% inhibitory concentration (IC50) in assay [1] was less than 500 nM. Besides, the “PDE-10 EC300 (μM)” value in assay [2] was “++ (1<IC50 or EC300<10 μM ++)”.
The corresponding values for `c1ccc(-c2c[nH]c(Sc3cnc4ccccc4n3)n2)cc1` [Compound 124] are less than 500 nM and “++ (1<IC50 or EC300<10 μM ++)”.
The corresponding values for `c1ccc(-c2c[nH]c(CCc3cc4ccccc4cn3)n2)cc1` [Compound 36] are less than 500 nM and “++ (1<IC50 or EC300<10 μM ++)”.
The corresponding values for `Cc1ncc(C)n2nc(CCc3ccc4ccccc4n3)nc12` [Compound 125, 2-(2-(5,8-Dimethyl-[1,2,4]triazolo[1,5-a]pyrazin-2-yl)ethyl)quinoline] are less than 500 nM and “++++ (IC50 or EC300<0.5 μM ++++)”.
As to `O=c1[nH]c(CCc2nc(-c3ccccc3)c[nH]2)nc2ccccc12` [Compound 3], the IC50 in assay [1] was less than 500 nM. The “PDE-10 EC300 (μM)” value in assay [2] is reported as “+ (IC50 or EC300>10 μM +)”.
